Experiments:
B16 melanoma cells [1] = assay: Melanin formation prevention test (melanin production and cell proliferation); format: cell-based; settings: for Degree of cell proliferation: relative to ethanol control
Description: B16 melanoma cells were suspended (10,000 cells/ml) in DMEM (Dulbecco's modified eagle medium) containing 10% FBS (fetal bovine serum) and 8 ml of the suspension was added to a cell culture bottle with a 25 cm^2 bottom surface area, and cultured at 37° C. in the presence of 5% carbon dioxide for 3 days. After 3 days of culture, the old medium was exchanged with 8 ml of fresh medium. 40 micro-liters of a sample solution, in which compounds of the present invention had been dissolved in ethanol to give a final concentration shown in the table, were further added thereto. As the control, ethanol only was added. After the medium change, the cells were further cultured for 3 days under the same conditions. After culture was finished, the medium was removed, and the cells were recovered by treatment with trypsin (DIFCO) and suspended in 4 ml of phosphate buffered saline (PBS) and a predetermined amount ( 1/40) of this suspension was used to measure the number of cells in a Coultar counter (Sysmex Co.) to determine the degree of cell proliferation.
The degree of cell proliferation was determined according to the following equations:
Degree of cell proliferation (%)=(number of cells in sample)/(number of cells in control)×100
The remainder of the cell suspension was centrifuged and then washed with 5% trichloroacetic acid, then with ethanol/ethyl ether (3:1 by volume), and with ethyl ether and the cells were dried, and 2N—NaOH was added thereto to dissolve (melanin in) the cells under heating at 70° C. and measured for its optical density (OD) at 420 nm. Using a calibration curve of synthetic melanin, the amount of melanin/million cells was determined from the OD and the degree of inhibition of melanin production was determined according to the following equation:
Degree of inhibition of melanin (%)=(amount of melanin in control−amount of melanin in sample)/(amount of melanin in control)×100

B16 melanoma cells [2] = assay: Combination test with existing tyrosinase inhibitors (method of Test Example 1); format: cell-based; settings: 0.4 ppm, alone; Table 2, combined use with arbutin
Description: B16 melanoma cells were suspended (10,000 cells/ml) in DMEM (Dulbecco's modified eagle medium) containing 10% FBS (fetal bovine serum) and 8 ml of the suspension was added to a cell culture bottle with a 25 cm^2 bottom surface area, and cultured at 37° C. in the presence of 5% carbon dioxide for 3 days. After 3 days of culture, the old medium was exchanged with 8 ml of fresh medium. 40 micro-liters of a sample solution, in which compounds of the present invention had been dissolved in ethanol to give a final concentration shown in the table, were further added thereto. As the control, ethanol only was added. After the medium change, the cells were further cultured for 3 days under the same conditions. […] Degree of cell proliferation (%)=(number of cells in sample)/(number of cells in control)×100 […] Using a calibration curve of synthetic melanin, the amount of melanin/million cells was determined from the OD and the degree of inhibition of melanin production was determined according to the following equation: Degree of inhibition of melanin (%)=(amount of melanin in control−amount of melanin in sample)/(amount of melanin in control)×100 […]

[3] = system: mushroom-derived tyrosinase; assay: Mushroom tyrosinase inhibition test; format: biochemical; settings: 25 ppm, L-tyrosine substrate, 37° C. 30 minutes
Description: After reaction, the absorbance (OD) at a wavelength of 490 nm was measured and the degree of inhibition of tyrosinase reaction was determined according to the following equation. […] Sample: The buffer, the enzyme solution, the substrate solution and the sample solution Sample-free: The buffer, the enzyme solution and the substrate solution Blank: The buffer and the enzyme solution

[4] = biological target: T1, tyrosinase in B16 melanoma cells (Mus musculus, UniProt P11344); assay: Test of tyrosinase inhibition in B16 melanoma cells (crude enzyme solution); format: biochemical; settings: 25 ppm, L-DOPA substrate, 37° C. 3 hours
T1 construct: the resulting supernatant was used as a crude enzyme solution; endogenous in cells; host or cells: B16 melanoma cells (Triton X100 lysate, sonicated, 11,000 G supernatant)
T1 sequence (P11344 19-533): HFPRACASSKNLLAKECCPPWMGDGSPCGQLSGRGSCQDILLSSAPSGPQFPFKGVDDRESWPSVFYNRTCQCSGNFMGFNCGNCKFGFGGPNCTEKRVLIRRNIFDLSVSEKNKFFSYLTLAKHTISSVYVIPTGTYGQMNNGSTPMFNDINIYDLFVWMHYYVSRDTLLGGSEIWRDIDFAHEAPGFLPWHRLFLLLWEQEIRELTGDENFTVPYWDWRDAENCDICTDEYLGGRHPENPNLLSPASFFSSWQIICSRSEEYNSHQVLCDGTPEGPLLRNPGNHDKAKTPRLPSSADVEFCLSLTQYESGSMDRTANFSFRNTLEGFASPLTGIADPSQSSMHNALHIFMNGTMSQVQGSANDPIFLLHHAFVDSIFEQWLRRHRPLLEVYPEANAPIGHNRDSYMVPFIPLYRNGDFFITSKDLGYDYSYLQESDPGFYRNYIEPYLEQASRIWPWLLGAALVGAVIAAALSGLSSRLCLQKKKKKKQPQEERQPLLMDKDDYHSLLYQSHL
Description: B16 melanoma cells were cultured for 3 days in DMEM containing 10% FBS at 37° C. in the presence of 5% carbon dioxide. The cells proliferated after culture were recovered by treatment with trypsin, then suspended in PBS containing 0.1% Triton X100 at a density of ten million cells/ml and disrupted by sonication. The product obtained was centrifuged at 11,000 G for 20 minutes, and the resulting supernatant was used as a crude enzyme solution. Added thereto was 0.2 ml of crude enzyme solution. The mixture was preliminarily kept at 37° C. for 5 minutes, and 0.2 ml L-DOPA solution (0.5 mg/ml) was added as the substrate, and the mixture was kept at 37° C. for 3 hours.

[5] = system: Bacillus subtilis PCI 219 IFO 3134; assay: Anti-bacterial activity test, agar medium dilution method; format: cell-based; settings: Bs-1
Description: (§1) The aerobic microorganisms were examined in an agar medium dilution method and the anaerobic microorganisms were examined in a liquid medium dilution method under anaerobic culture conditions. Muller Hinton agar medium (DIFCO) was heated and dissolved and 10 ml of the medium was introduced into each test tube, sterilized and used. The sample was prepared by dissolving in ethanol and the resulting ethanol solution was diluted 2-fold serially with ethanol, and 100 micro-liters of sample solution were added to 10 ml of each dissolved agar medium, then stirred, introduced into a Petri dish of 9 cm in diameter, and solidified at room temperature. Each test microorganism in a well grown slant was inoculated via one loop of platinum into 10 ml Muller Hinton broth (DIFCO) and cultured with shaking at 27° C. for 24 hours and used as a microbial fluid. This fluid was diluted at 10^8 CFU (Colony forming unit)/ml, and 5 micro-liters of the diluted fluid were inoculated onto the agar and cultured at 37° C. overnight. Inoculation of the microorganism was conducted using microplanter MIT-P for 27 tubes test microorganisms (Sakuma Seisakusho K. K.).

[6] = system: Corynebacterium minutissimum ATCC 23348; assay: as above; format: cell-based; settings: Cm-1
Description: as §1

[7] = system: Corynebacterium xerosis JCM 1324; assay: as above; format: cell-based; settings: Cx-2
Description: as §1

[8] = system: Malassezia furfur IFO 0656; assay: as above; format: cell-based; settings: Mf-1
Description: as §1

[9] = system: Staphylococcus aureus IFO 12732; assay: as above; format: cell-based; settings: Sa-3
Description: as §1

[10] = system: Staphylococcus epidermidis JCM 2414; assay: as above; format: cell-based; settings: Se-1
Description: as §1

[11] = system: Staphylococcus epidermidis var. H-6; assay: as above; format: cell-based; settings: Se-2
Description: as §1

[12] = system: Propinibadterium Acnes ATCC 12818; assay: Anti-bacterial activity test, liquid medium dilution method (anaerobic); format: cell-based; settings: Pa-1, anaerobic
Description: (§2) The aerobic microorganisms were examined in an agar medium dilution method and the anaerobic microorganisms were examined in a liquid medium dilution method under anaerobic culture conditions. 10 ml GAM broth (Nissui) was introduced into each test tube equipped with a cap and sterilized. 100 micro-liter of the sample solution prepared for agar medium dilution method was added to each test tube and lightly stirred, and 100 micro-liter test microbial solution (10^7 CFU/ml) was added thereto, then capped and incubated at 37° C. The test microbial solution was prepared by introducing 100 micro-liter stock microbial solution into 10 ml GAM broth in a test tube then capping the tube and fermenting it at 37° C. overnight.

[13] = system: streptococcus mutans JCM 5157; assay: as above; format: cell-based; settings: Su-1, anaerobic
Description: as §2

[14] = system: Human-derived normal skin fibroblasts (NB1RGB); assay: Test of cell activating activity (fibroblast proliferation); format: cell-based; settings: 8.0 ppm, relative to ethanol control (100)
Description: Human-derived normal skin fibroblasts (NB1RGB: Institute of Physical and Chemical Research) were suspended into DMEM containing 10% FBS to give a concentration of 20,000 cells/ml, and 5 ml each of this cellular suspension was introduced into each of 25 cm^2 bottles, cultured at 37° C. in the presence of 5% carbon dioxide for 24 hours. To each bottle, was added 10 micro-liter (0.2%) of the ethanol solution containing the compound to give the final concentration shown in Table 8. The cells were cultured for an additional 3 days. After 3 days the old medium was discarded and 5 ml fresh medium was added, and the sample was further added thereto. After this exchange of the medium, the cells were further cultured for another 3 days. Then cells were removed with trypsin and the number of cells in each bottle was counted with a Coultar counter. Simultaneously, as the control, only ethanol was added and the NB1RGB cells were cultured and the number of cells were counted in the same manner. The number of cells in each bottle to which the sample had been added was determined as a relative value to the number (as 100) of cells in the control after cultured, and the results are shown in Table 8.

[15] = system: UV Ray-induced Pigment Stains; assay: Effect of diminishing UV ray-induced pigment stains in guinea pigs; format: in vivo, brown guinea pigs; settings: 7% ethanol solution applied once per day on UVB-irradiated skin
Source text: Hair was carefully removed from the back of 5 brown guinea pigs, and a shielding plate provided with four 2.5 cm×2.5 cm openings was attached to the portion from which hair had been removed, followed by irradiating it 3 times every second day with UVB rays at an intensity of 450 mj/cm^2. Immediately after the irradiation of UVB rays, a 70 micro-liters sample was applied onto the irradiated site once per day for 35 days, and the amount of pigment diminished by this treatment was examined on the days shown in Table 5. […]
For evaluation of the activity, each application site was measured by a calorimeter (CR200b, Minolta Co Ltd.). ΔLx is the difference between the L value after the sample application (value changing with time) and the L value of the portion before the sample application started, and then ΔΔL value was determined by subtracting ΔLo value (i.e. the value similarly determined for the portion to which ethanol was applied) from the ΔLx value. The ΔΔL value can be determined according to the equation: […]
Lo: L value of the test site (site to which the sample was applied) before sample application
Lx : L value of the test site (site to which the sample was applied) on Day x after sample application
L′o : L value of the control site (site to which ethanol was applied) before ethanol application
L′x : L value of the control site (site to which ethanol was applied) on Day x after ethanol application

CC1=C(CCC(C)CC(=O)O)C2(C)CCCC(C)(C)C2CC1 (stereo not drawn) [Compound 1, labd-8-en-15-oic acid]
Degree of melanin inhibition (B16 melanoma cells [1]; 3.1 ppm, 3 days): 80%
Degree of cell proliferation (B16 melanoma cells [1]; 3.1 ppm): 109%
Degree of cell proliferation (B16 melanoma cells [2]): 115%
Degree of melanin inhibition (B16 melanoma cells [2]): 22%
Degree of inhibition of mushroom tyrosinase [3]: 0%
Degree of inhibition of tyrosinase in B16 melanoma cells [4]: 0%
MIC [5]: 6.3 ppm
MIC [6]: 6.3 ppm
MIC [7]: 12.5 ppm
MIC [8]: 6.3 ppm
MIC [9]: 12.5 ppm
MIC [10]: 6.3 ppm
MIC [11]: 6.3 ppm
MIC [12]: 12.5 ppm
MIC [13]: 6.3 ppm

labden-15-oic acid [Compound 10]
Degree of melanin inhibition (B16 melanoma cells [1]; 6.3 ppm, 3 days): 83%
Degree of cell proliferation (B16 melanoma cells [1]; 6.3 ppm): 97%
Degree of cell proliferation of fibroblasts [14]: 126%
MIC [5]: 6.3 ppm
MIC [6]: 6.3 ppm
MIC [7]: 6.3 ppm
MIC [8]: 6.3 ppm
MIC [9]: 6.3 ppm
MIC [10]: 6.3 ppm
MIC [11]: 6.3 ppm
MIC [12]: 12.5 ppm
MIC [13]: 6.3 ppm

O=c1cc(CO)occ1O [Kojic acid, reference compound]
Degree of cell proliferation (B16 melanoma cells [1]; 200.00 ppm): 94%
inhibition at 200 ppm (B16 melanoma cells [1]; Mus musculus, 72 h, 200.00 ppm, 3 days, read-out: Degree of melanin inhibition): 34%
ΔΔL ([15]; Day 14): 1.32
ΔΔL ([15]; Day 28): 1.52
ΔΔL ([15]; Day 35): 1.40
Degree of inhibition of mushroom tyrosinase [3]: 67%

From patent US6384074B1, “Cell growth activating composition containing compound having labdane structure” (Takasago International Corporation, priority 1998, dated 2002)
